Results from US7160708B2, “Fatty alcohol oxidase genes and proteins from Candida tropicalis and methods relating thereto” (Cognis Corporation, priority 2002, dated 2007).

Tests used:
[1] = test system: FAO1 or FAO2; assay: Alcohols used for substrate specificity testing, activity detected with either enzyme; type: biochemical, Candida tropicalis; design: key: X: Activity detected using this substrate with either FAO1 or FAO2; conditions: final alcohol concentration 200 μM
Source text: The assay procedure used is a modification of an assay used by Kemp et al (1). The assay is a two-enzyme coupled reaction. Dodecanol was used as the substrate for the FAO, which oxidizes the dodecanol to dodecanal. At the same time it reduces molecular oxygen to hydrogen peroxide. A second enzyme in the reaction mixture, peroxidase derived from horseradish (HRP), uses electrons obtained by oxidizing hydrogen peroxide to […] 2,2′-azino-bis(3-ethylbenzthiazoline-6-sulfonic acid) (ABTS) in the reaction mixture. […] absorbs strongly at 405 nm. The quality of HRP is important, since it has been observed that commercially obtained preparations vary in quality. It is necessary, therefore, to obtain preparations of highest purity. The HRP (Sigma #P8415) was made at a concentration of 2 mg/ml (≈250 units/mg) in 50 mM potassium phosphate buffer, pH 7.6.
After adding the extract, the activity was generally read at 405 nm for one minute at room temperature. The amount of extract that was added to the reaction mixture was varied so that the activity fell within the range of 0.2 to 1.0 ΔA^405 nm/min. Alcohol oxidase activity was reported as specific activity units/mg protein (1 unit=μmole substrate oxidized/min). An extinction coefficient at 405 nm of 18.4 was used for ABTS and was equivalent to 0.5 mM oxidized substrate. In certain substrate-specificity experiments, 200 mM HEPES buffer, pH 7.6, containing 0.5% Triton X100 was used in place of the 200 mM HEPES buffer in the reaction mixture described above. The detergent aided in solubilizing some of the more water-insoluble substrates tested.
FAO1, FAO2a and FAO2a′ were tested for their activity with various alcohols. The alcohols shown in Table 5 were prepared in 20 mM stock solutions in acetone. Alcohols showing activity with either FAO1 or FAO2a are indicated. The final concentration of the alcohol used in the substrate specificity experiment was 200 μM. These same alcohols were used to determine the Km and Vmax of FAO1, FAO2a, and FAO2a′. […] There was a big drop in activity in going from a C8 alcohol to a C6 alcohol with FAO1, FAO2a, and FAO2a′. FAO2a and FAO2a′ oxidize 2-octanols fairly well; however no activity was detected with FAO1. In contrast, FAO1 oxidizes ω-hydroxy fatty acids well, but no activity for ω-hydroxy fatty acids was measured with FAO2a and FAO2a′ (FIG. 6). […] Although the substrate specificity of FAO2b was not performed, due to the close homology with FAO2a, it is likely to be very similar.

[2] = test system: fatty alcohol oxidase; assay: FAO activity of extracts made from fermentor samples induced with HOSFFA; type: biochemical, Candida tropicalis; conditions: data not shown
Source text: (§1) The assay is a two-enzyme coupled reaction. […] ABTS absorbs strongly at 405 nm.

[3] = test system: FAO from C. tropicalis (ATCC 20336); conditions: cited from earlier work; for Oxidation by purified C. tropicalis FAO: purified enzyme (ref. 3); for Oxidation by C. tropicalis FAO (Kemp et al. 1988): cells grown on hexadecane
[4] = test system: C=CCCCCCCCCCO; assay: purified protein, by the assay type
[5] = test system: CCCCCCCCO; assay: purified protein, by the assay type
[6] = test system: CCCCCCCCC(C)O; assay: purified protein, by the assay type
[7] = test system: CCCCCCCCCC(C)O; assay: purified protein, by the assay type
[8] = test system: CCCCCCCCCCCCCCO; assay: purified protein, by the assay type
[9] = test system: CCCCCCCCCCCCCCCCO; assay: purified protein, by the assay type
[10] = test system: CCCCCCCCCCCCO; assay: purified protein, by the assay type
[11] = test system: CCCCCCCCCCC(C)O; assay: purified protein, by the assay type
[12] = test system: OCCCCCCCCCCCCCCCCO; assay: purified protein, by the assay type
[13] = test system: OCCCCCCCCCCO; assay: purified protein, by the assay type
[14] = test system: CCCCCCCCCCO; assay: purified protein, by the assay type
[15] = test system: CCCCCCCCCCCCCCC(C)O; assay: purified protein, by the assay type
[16] = test system: CCCCCCCCCCC(O)CO; assay: purified protein, by the assay type
[17] = molecular target: FAO1 (Candida tropicalis, UniProt Q6QIR6); assay: FAO enzyme assay (HRP/ABTS coupled) with FAO1 expressed in E. coli: substrate specificity and Km; conditions: for Activity of FAO1 with the alcohol (substrate specificity): 200 μM alcohol, relative to dodecanol set at 100%, FIG. 4-6
Source text: as §1

[18] = test system: FAO from C. maltosa; conditions: cited from earlier work
[19] = molecular target: FAO2a (Candida tropicalis, UniProt Q6QIR5, S177L); type: biochemical; conditions: for Activity of FAO2a with the alcohol (substrate specificity): 200 μM alcohol, relative to dodecanol set at 100%, FIG. 4-6; for Km FAO2a: pH 7.6, HEPES/Triton X-100 buffer, enzyme constant, alcohol concentration varied
Source text: as §1

[20] = molecular target: FAO2a′ (Candida tropicalis, UniProt Q6QIR5); assay: FAO enzyme assay (HRP/ABTS coupled) with FAO2a′ (CTG-codon-altered FAO2a) expressed in E. coli: substrate specificity and Km; conditions: 200 μM alcohol; relative to dodecanol set at 100%; FIG. 4-6
Experimental: The assay is a two-enzyme coupled reaction. […] At the same time it reduces molecular oxygen to hydrogen peroxide. A second enzyme in the reaction mixture, peroxidase derived from horseradish (HRP), uses electrons obtained by oxidizing hydrogen peroxide to reduce 2,2′-azino-bis(3-ethylbenzthiazoline-6-sulfonic acid) (ABTS) in the reaction mixture. Reduced ABTS absorbs strongly at 405 nm. […] The HRP (Sigma #P8415) was made at a concentration of 2 mg/ml (≈250 units/mg) in 50 mM potassium phosphate buffer, pH 7.6.
Initially, only the properties of the enzyme derived from the native sequence of FAO2a were determined. […] The properties of both FAO2a and FAO2a′ were determined as described in the following examples.
FAO1, FAO2a and FAO2a′ were tested for their activity with various alcohols. The alcohols shown in Table 5 were prepared in 20 mM stock solutions in acetone. […] The final concentration of the alcohol used in the substrate specificity experiment was 200 μM. These same alcohols were used to determine the Km and Vmax of FAO1, FAO2a, and FAO2a′.
(§2) In this case, all reactions contained the same amount of acetone (20 μl/ml).

[21] = test system: O=C(O)CCCCCCCCCCCCCCCO; assay: purified protein, by the assay type; conditions: other: pH 7.6, HEPES/Triton X-100 buffer, enzyme constant, alcohol concentration varied
Source text: The assay is a two-enzyme coupled reaction. […] At the same time it reduces molecular oxygen to hydrogen peroxide. A second enzyme in the reaction mixture, peroxidase derived from horseradish (HRP), uses electrons obtained by oxidizing hydrogen peroxide to reduce 2,2′-azino-bis(3-ethylbenzthiazoline-6-sulfonic acid) (ABTS) in the reaction mixture. Reduced ABTS absorbs strongly at 405 nm. The quality of HRP is important, since it has been observed that commercially obtained preparations vary in quality. It is necessary, therefore, to obtain preparations of highest purity. The HRP (Sigma #P8415) was made at a concentration of 2 mg/ml (≈250 units/mg) in 50 mM potassium phosphate buffer, pH 7.6.
FAO1, FAO2a and FAO2a′ were tested for their activity with various alcohols. […] The final concentration of the alcohol used in the substrate specificity experiment was 200 μM. These same alcohols were used to determine the Km and Vmax of FAO1, FAO2a, and FAO2a′.
as §2

[22] = other: pH 7.6, HEPES/Triton X-100 buffer, enzyme constant, alcohol concentration varied
[23] = other: 0.1 M HEPES, pH 7.6, substrate stocks in acetone (20 μl/ml)

Chain of FAO2a (Q6QIR5 whole entry S177L): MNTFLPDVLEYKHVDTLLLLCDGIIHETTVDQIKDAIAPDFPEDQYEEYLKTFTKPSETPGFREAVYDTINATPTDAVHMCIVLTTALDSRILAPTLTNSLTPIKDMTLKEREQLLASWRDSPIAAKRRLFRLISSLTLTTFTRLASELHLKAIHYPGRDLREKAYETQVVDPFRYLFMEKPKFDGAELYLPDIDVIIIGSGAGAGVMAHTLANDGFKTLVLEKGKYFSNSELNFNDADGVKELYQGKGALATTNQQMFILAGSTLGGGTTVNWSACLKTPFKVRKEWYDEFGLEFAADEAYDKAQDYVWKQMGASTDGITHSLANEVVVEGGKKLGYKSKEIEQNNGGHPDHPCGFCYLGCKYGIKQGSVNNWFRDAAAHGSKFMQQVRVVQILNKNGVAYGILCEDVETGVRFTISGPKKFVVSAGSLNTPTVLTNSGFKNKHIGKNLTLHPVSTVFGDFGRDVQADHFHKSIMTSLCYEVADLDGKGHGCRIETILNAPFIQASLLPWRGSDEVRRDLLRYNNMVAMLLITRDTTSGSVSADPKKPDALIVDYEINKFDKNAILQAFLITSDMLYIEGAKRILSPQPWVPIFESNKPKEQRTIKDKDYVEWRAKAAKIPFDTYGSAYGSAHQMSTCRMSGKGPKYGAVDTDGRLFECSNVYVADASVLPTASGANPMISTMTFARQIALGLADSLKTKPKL
Chain of FAO1 (Q6QIR6 entry or part of it): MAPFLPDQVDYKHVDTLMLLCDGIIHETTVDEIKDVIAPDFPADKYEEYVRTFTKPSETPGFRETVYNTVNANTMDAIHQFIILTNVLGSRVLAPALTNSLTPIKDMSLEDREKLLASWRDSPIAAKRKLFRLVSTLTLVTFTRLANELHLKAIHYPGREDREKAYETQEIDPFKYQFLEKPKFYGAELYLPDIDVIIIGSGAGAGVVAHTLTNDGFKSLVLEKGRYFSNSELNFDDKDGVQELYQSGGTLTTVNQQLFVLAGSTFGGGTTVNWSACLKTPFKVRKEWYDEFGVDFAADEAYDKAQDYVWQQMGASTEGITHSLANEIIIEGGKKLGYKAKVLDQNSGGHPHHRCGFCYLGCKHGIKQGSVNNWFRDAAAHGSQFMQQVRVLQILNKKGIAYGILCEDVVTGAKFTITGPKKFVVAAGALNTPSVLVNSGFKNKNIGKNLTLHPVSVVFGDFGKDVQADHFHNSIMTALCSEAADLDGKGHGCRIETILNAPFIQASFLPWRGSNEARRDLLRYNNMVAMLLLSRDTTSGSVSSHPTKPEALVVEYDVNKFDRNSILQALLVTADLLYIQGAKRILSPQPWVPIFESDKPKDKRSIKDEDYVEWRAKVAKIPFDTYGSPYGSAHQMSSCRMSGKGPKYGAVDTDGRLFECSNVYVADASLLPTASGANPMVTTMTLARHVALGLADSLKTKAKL
Chain of FAO2a′ (Q6QIR5 entry or part of it): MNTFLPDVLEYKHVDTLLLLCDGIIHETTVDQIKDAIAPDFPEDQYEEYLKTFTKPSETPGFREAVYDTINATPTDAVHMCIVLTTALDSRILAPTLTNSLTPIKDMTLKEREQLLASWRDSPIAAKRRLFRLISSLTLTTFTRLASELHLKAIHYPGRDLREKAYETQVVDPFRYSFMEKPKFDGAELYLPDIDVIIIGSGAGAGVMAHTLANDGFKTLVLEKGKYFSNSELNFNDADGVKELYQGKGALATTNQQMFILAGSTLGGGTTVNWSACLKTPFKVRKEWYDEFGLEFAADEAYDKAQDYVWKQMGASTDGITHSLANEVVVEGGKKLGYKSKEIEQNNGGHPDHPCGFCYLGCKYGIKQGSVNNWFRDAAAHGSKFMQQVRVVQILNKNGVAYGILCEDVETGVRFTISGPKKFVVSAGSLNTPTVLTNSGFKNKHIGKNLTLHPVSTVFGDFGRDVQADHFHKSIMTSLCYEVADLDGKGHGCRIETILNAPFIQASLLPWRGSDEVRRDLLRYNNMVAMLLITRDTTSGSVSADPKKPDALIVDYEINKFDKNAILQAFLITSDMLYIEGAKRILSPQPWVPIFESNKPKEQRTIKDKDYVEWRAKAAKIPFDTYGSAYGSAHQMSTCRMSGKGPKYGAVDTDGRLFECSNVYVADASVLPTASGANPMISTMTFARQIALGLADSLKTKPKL

OCCCCCCCCCCCCCCCCO [1,16-Hexadecanediol]
Activity Detected [1]: X

CCCCCCCCCCCCCCCCO [Hexadecanol]
Activity Detected [1]: X

CCCCCCCCCCC(C)O (centres unmarked) [2-Dodecanol]
Activity Detected [1]: X | Activity of extracts from HOSFFA-induced fermentor samples with the alcohol [2]: no activity | Oxidation by purified C. tropicalis FAO [3]: additional activity

CCCCCCC(O)CO (centres unmarked) [1,2-Octanediol]
Activity Detected [1]: X

FAO2a (Candida tropicalis; S177L)
Km [4, 22]: 45 µM | Km [5, 22]: 503 µM | Km [6, 22]: 934 µM | Km [7, 22]: 141 µM | Km [8, 22]: 4.6 µM | Km [9, 22]: 56 µM | Km [10, 22]: 2.5 µM | Km [11, 22]: 41.3 µM | Km [12, 22]: 37.3 µM | Km [13, 22]: 425 µM | Km [14, 22]: 74 µM | Km [15, 22]: 350 µM | Km [16, 22]: 998 µM

CCCCCCCCO [Octanol]
Activity Detected [1]: X | Activity of FAO1 with the alcohol (substrate specificity) [17]: preferred 1-octanol as substrate | Oxidation by C. maltosa FAO [18]: highest activity

O=C(O)CCCCCCCCCCCO [12-Hydroxydodecanoic acid]
Activity Detected [1]: X | Oxidation by C. tropicalis FAO (Kemp et al. 1988) [3]: not | Oxidation by purified C. tropicalis FAO [3]: additional activity

CCCCCCCCCCC(O)CO (centres unmarked) [1,2-Dodecanediol]
Activity Detected [1]: X

CCCCCCCCC(C)O (centres unmarked) [2-Decanol]
Activity Detected [1]: X

FAO2a′ (Candida tropicalis)
Km [4, 23]: 36.1 µM | Km [5, 23]: 654 µM | Km [6, 23]: 1090 µM | Km [7, 23]: 162 µM | Km [8, 23]: 2.4 µM | Km [9, 23]: 85 µM | Km [10, 23]: 4.4 µM | Km [11, 23]: 75.3 µM | Km [12, 23]: 16.3 µM | Km [13, 23]: 1607 µM | Km [14, 23]: 69.6 µM | Km [15, 23]: 720 µM | Km [16, 23]: 928 µM

C=CCCCCCCCCCO [10-Undecen-1-ol]
Activity Detected [1]: X | Activity of FAO2a with the alcohol (substrate specificity) [19]: much better than FAO1 | Activity of FAO2a′ with the alcohol (substrate specificity) [20]: much better than FAO1

O=C(O)CCCCCCCCCCCCCCCO [16-hydroxy-hexadecanoic, 16-hydroxyhexadecanoic acid]
Km FAO1 ([17]; pH 7.6, HEPES/Triton X-100 buffer, enzyme constant, alcohol concentration varied): lowest Km value | Activity of extracts from HOSFFA-induced fermentor samples with the alcohol [2]: good activity | Oxidation by C. maltosa FAO [18]: fairly low rates of oxidation | Oxidation by C. tropicalis FAO (Kemp et al. 1988) [3]: oxidize

CCCCCCO [Hexanol]
Activity Detected [1]: X

CCCCCCCCCCO [Decanol]
Activity Detected [1]: X

CCCCCCCCCCCCO [Dodecanol]
Activity Detected [1]: X | Activity of FAO2a with the alcohol (substrate specificity) [19]: preferred 1-dodecanol above all other 1-alkanols | Km FAO2a [19]: lowest Km values | Activity of FAO2a′ with the alcohol (substrate specificity) [20]: preferred 1-dodecanol above all other 1-alkanols | Oxidation by C. tropicalis FAO (Kemp et al. 1988) [3]: maximal activity

O=C(O)CCCCCCCCCO [10-Hydroxydecanoic acid]
Activity Detected [1]: X

CCCCCCCCCCCCCCC(C)O (centres unmarked) [2-Hexadecanol]
Activity Detected [1]: X

16-Hydroxydodecanoic acid
Activity Detected [1]: X

OCCCCCCCCCCO [1,10-Decanediol]
Activity Detected [1]: X

FAO1 (Candida tropicalis)
Km [4, 22]: 9.9 μM μM | Km [5, 22]: 41.0 μM μM | Km [8, 22]: 28.1 μM μM | Km [9, 22]: 11.9 μM μM | Km [10, 22]: 14.9 μM μM | Km [21]: 7.4 μM μM | Km [12, 22]: 10.3 μM μM | Km [13, 22]: 67.0 μM μM | Km [14, 22]: 15.1 μM μM

CCCCCCCCCCCCCCO [Tetradecanol]
Activity Detected [1]: X | Activity of FAO1 with the alcohol (substrate specificity) [17]: the preferred longer-chain alcohol | Km FAO2a [19]: lowest Km values

CCCCCCCCCC(C)O (centres unmarked) [2-Undecanol]
Activity Detected [1]: X
